Where two headings read alike, the source gives them in different places.
Assays:
[1] = test system: hand-foot syndrome induced by anti-tumor agents; test: Prevention of hand-foot syndrome induced by anti-tumor agents in rats, NO-NSAID ointment on hind paws (Table 2-2); assay type: in vivo, SD rats; conditions: Rattus norvegicus, topical, read-out: Control rate; for responders at 0.5 %: ointment 0.50% wt; for responders at 1 %: ointment 1% wt; for responders at 2.5 %: ointment 2.50% wt; for responders at 5 %: ointment 5% wt
Description: A rat animal model was constructed, and the anti-tumor agents shown in Table 2-2 were respectively administered to 8-week-old female SD rats by daily oral gavage. […] Therefore, rats serve as an excellent animal model for simulating side effects (such as hand-foot syndrome) caused by anti-tumor agents.
After the rats (about 200 g) were fed and adapted for one week, they were divided into a NO-NSAID group and a control group, with 10 rats in each group, and a gavage administration test was conducted. The various anti-tumor agents were dissolve in a mixed solution of Cremophor EL:ethanol=1:1. The anti-tumor agent solution were diluted with PBS to the required concentration (about 3 times with PBS solution) before gavage administration. After gavage, an ointment containing NO-NSAID was applied to the hind paws of the rats, while the control group was applied with a blank ointment. After application, the rats were placed in a fixed cylinder for 4 hours. After 4 hours, the rats were released and the residual ointment was wiped off with clean water, then the rats were returned to the cage. The gavage frequency of inhibitors was shown in Table 2-2, and NO-NSAID was only applied once a day. The gavage and application operations were repeated daily until the end of the experiment.
Table 2-2 lists the animal experimental combinations of various anti-tumor agents and NO-NSAID ointments, as well as the corresponding experimental results (wherein the value in the control rate column=the hand-foot syndrome incidence rate in the blank group−the hand-foot syndrome incidence rate in the treatment group).

[2] = test system: HUVEC cells; test: CCK-8 cell viability: alleviation of proliferative toxicity of anti-tumor agents on HUVEC cells (Tables 7-1, 7-2); assay type: cell-based; conditions: for activation at 100 µM: Homo sapiens, 24 h, percentage increase in viable cells vs anti-tumor agent alone, read-out: Response rate % (average)
Method: The cultured HUVEC cells were digested the suspended, counted, and seed into a 96-well plate with 5,000-10,000 cells per well. The wells are divided into the following groups: blank control group, anti-tumor agent group, anti-tumor agent+NO-NSAID group, anti-tumor agent solvent group, NO-NSAID control group. Wherein each well of each group contained a basic medium, and the final liquid volume contained in each well was about 100 μL. The grouping situation was as follows: • 1) Blank control group: no solution was added except normally replacing the medium; • 2) Anti-tumor agent group: added the anti-tumor agent solution (the final concentration was shown in Table 7-1 and Table 7-2, the solvent of the anti-tumor agent solution was DMSO); • 3) Anti-tumor agent+NO-NSAID group: added the anti-tumor agent solution and the NO-NSAID solution (the final concentrations of anti-tumor agent and NO-NSAID were shown in Table 7-1 and Table 7-2, and according to the solubility of NO-NSAID, the solvent of NO-NSAID solution was selected as ethanol or sterile water, and minor volume differences in each group were adjusted by added the corresponding solvent); • 4) Anti-tumor agent solvent group: an equal volume of DMSO as contained in the corresponding anti-tumor agent solution in Group 2) was added; • 5) NO-NSAID control group: the same volume and type of solvent (for example, ethanol or sterile water) corresponding to the NO-NSAID contained in group 3) was added.
The anti-tumor agent solvent group was not involved in data processing and was only used as a reference for evaluating experimental system error. The NO-NSAID solvent control group was used for data correction to eliminate the influence of the solvent on the results.
After culturing for 24-48 hours, the Cell Counting Kit-8 (CCK-8) detection kit (C0037, Shanghai Beyotime Biotechnology Co., Ltd., Beyotime Biotechnology) was used to determine the cell viability. This allows for the calculation of the proliferative toxicity of anti-tumor agent on cell and the mitigating effect of NO-NSAID on proliferative toxicity. The results were statistically analyzed and plotted using GraphPad Prism 6.0 software and t test.

[3] = 120 h, Sorafenib 80 mg/kg once a day, Days 5
[4] = 432 h, Cabozantinib 50 mg/kg once a day, Days 18
[5] = 432 h, Lenvatinib 100 mg/kg twice a day, Days 18
[6] = 432 h, Nintedanib 110 mg/kg once a day, Days 18
[7] = 432 h, Regorafenib 90 mg/kg once a day, Days 18
[8] = Afatinib (10 μM), NO-NSAID 100 μM
[9] = Cabozantinib (5 μM), NO-NSAID 100 μM
[10] = Dabrafenib (10 μM), NO-NSAID 100 μM

`COc1ccc2cc(C(C)C(=O)OCCCCO[N+](=O)[O-])ccc2c1` (stereo not drawn) [Compound A5] was tested, and the responders at 0.5 % [1, 3] was 28.6%, the responders at 1 % [1, 3] was 50% and the responders at 2.5 % [1, 3] was 71.4%. For the same compound, the responders at 5 % [1, 3] was 80%, the responders at 2.5 % ([1]; 360 h, Apatinib 105 mg/kg once a day, Days 15) was 42.9% and the responders at 2.5 % ([1]; 360 h, Encorafenib 80 mg/kg once a day, Days 15) was 66.7%. For the same compound, the responders at 2.5 % ([1]; 360 h, Lapatinib 120 mg/kg twice a day, Days 15) was 60%, the responders at 2.5 % ([1]; 360 h, Sunitinib 120 mg/kg once a day, Days 15) was 57.1% and the responders at 2.5 % ([1]; 384 h, Fruquintinib 40 mg/kg once a day, Days 16) was 42.9%. For the same compound, the responders at 2.5 % ([1]; 432 h, Anlotinib 20 mg/kg once a day, Days 18) was 50%, the responders at 2.5 % ([1]; 432 h, Axitinib 50 mg/kg once a day, Days 18) was 66.7% and the responders at 1 % [1, 4] was 42.9%. It also gave a responders at 2.5 % [1, 4] of 60%, a responders at 5 % [1, 4] of 57.1% and a responders at 1 % [1, 5] of 28.6%. The responders at 2.5 % [1, 5] was 71.4%, the responders at 5 % [1, 5] was 71.4% and the responders at 1 % [1, 6] was 40%. It also gave a responders at 2.5 % [1, 6] of 66.7%, a responders at 5 % [1, 6] of 50% and a responders at 0.5 % [1, 7] of 50%. It also gave a responders at 1 % [1, 7] of 71.4%, a responders at 2.5 % [1, 7] of 71.4% and a responders at 5 % [1, 7] of 83.3%. The responders at 2.5 % ([1]; 480 h, Erdafitinib 45 mg/kg once a day, Days 20) was 57.1%, the responders at 2.5 % ([1]; 480 h, Olmutinib 100 mg/kg once a day, Days 20) was 66.7% and the “NO-NSAID response rate % (average)” value ([2]; Afatinib (10 μM), NO-NSAID 0.1 μM) was 24%. The “NO-NSAID response rate % (average)” value ([2]; Afatinib (10 μM), NO-NSAID 1 μM) was 28%, the “NO-NSAID response rate % (average)” value [2, 8] was 69% and the “NO-NSAID response rate % (average)” value ([2]; Afatinib (10 μM), NO-NSAID 500 μM) was 22%. The “NO-NSAID response rate % (average)” value ([2]; Cabozantinib (5 μM), NO-NSAID 0.1 μM) was 1%, the “NO-NSAID response rate % (average)” value ([2]; Cabozantinib (5 μM), NO-NSAID 1 μM) was 15% and the “NO-NSAID response rate % (average)” value [2, 9] was 60%. For the same compound, the “NO-NSAID response rate % (average)” value ([2]; Cabozantinib (5 μM), NO-NSAID 500 μM) was 24%, the “NO-NSAID response rate % (average)” value ([2]; Dabrafenib (10 μM), NO-NSAID 0.1 μM) was 27% and the “NO-NSAID response rate % (average)” value ([2]; Dabrafenib (10 μM), NO-NSAID 1 μM) was 28%. The “NO-NSAID response rate % (average)” value [2, 10] was 65%, the “NO-NSAID response rate % (average)” value ([2]; Dabrafenib (10 μM), NO-NSAID 500 μM) was 31% and the “NO-NSAID response rate % (average)” value ([2]; Everolimus (5 μM), NO-NSAID 0.1 μM) was 0%. The “NO-NSAID response rate % (average)” value ([2]; Everolimus (5 μM), NO-NSAID 1 μM) was −7%, the “NO-NSAID response rate % (average)” value ([2]; Everolimus (5 μM), NO-NSAID 100 μM) was 28% and the “NO-NSAID response rate % (average)” value ([2]; Everolimus (5 μM), NO-NSAID 500 μM) was −2%. For the same compound, the activation at 100 µM [2, 8] was 69%, the activation at 100 µM ([2]; Anlotinib (5 μM), NO-NSAID 100 μM) was 57% and the activation at 100 µM ([2]; Apatinib (10 μM), NO-NSAID 100 μM) was 59%. For the same compound, the activation at 100 µM ([2]; Axitinib (10 μM), NO-NSAID 100 μM) was -2%, the activation at 100 µM [2, 9] was 60% and the activation at 100 µM [2, 10] was 65%.

— patent publication US20250170090A1, “METHOD FOR PREVENTING OR TREATING DISEASE OR DISORDER ASSOCIATED WITH ANTINEOPLASTIC AGENT” (ONQUALITY PHARMACEUTICALS CHINA LTD., priority 2022, published 2025)
